Test results published in ChEMBL document CHEMBL1142501, “PASS-assisted exploration of antidepressant activity of 1,3,4-trisubstituted-beta-lactam derivatives” (Bioorg Med Chem Lett, 2008).
Active and inactive are the calls of the source. The calls are words filed in the database; no cut-off is given here.

Tests used:
Format in all cases: functional, organism-based
Mus musculus [1] = test: Antidepressant activity against dark-induced depression in Albino Swiss mouse assessed as decrease in immobility period at 15 mg/kg, ip once daily for 4 days and 30 mins before test on day 5 by forced swimming test; design: dose 15 mg/kg
Mus musculus [2] = test: Antidepressant activity against dark-induced depression in Albino Swiss mouse assessed as decrease in immobility period at 30 mg/kg, ip once daily for 4 days and 30 mins before test on day 5 by forced swimming test; design: dose 30 mg/kg
Mus musculus [3] = test: Antidepressant activity against dark-induced depression in Albino Swiss mouse assessed as increase in brain serotonin level at 15 mg/kg, ip once daily for 4 days and 30 mins before test on day 5; design: dose 15 mg/kg
Mus musculus [4] = test: Antidepressant activity against dark-induced depression in Albino Swiss mouse assessed as increase in brain serotonin level at 20 mg/kg, ip once daily for 4 days and 30 mins before test on day 5; design: dose 20 mg/kg
Mus musculus [5] = test: Antidepressant activity against dark-induced depression in Albino Swiss mouse assessed as decrease in immobility period at 20 mg/kg, ip once daily for 4 days and 30 mins before test on day 5 by forced swimming test; design: dose 20 mg/kg

SMILES	Activity (Mus musculus [1])	Activity (Mus musculus [2])	Activity (Mus musculus [3])	Activity (Mus musculus [4])	Activity (Mus musculus [5])
Cc1ccc(N2C(=O)[C@@H]3[C@H]([C@H]4C(=O)N(C5CCCCC5)[C@H]4c4ccc(Cl)cc4)C=CC[C@@H]3C2=O)cc1	inactive	inactive	inactive	–	–
CNCCC(Oc1ccc(C(F)(F)F)cc1)c1ccccc1 (stereo not given)	–	–	–	Active	Active
O=C1C=CC(=O)[C@H]2CC=C[C@@H]([C@H]3C(=O)N(C4CCCCC4)[C@H]3c3ccccc3)[C@@H]12	Active	Active	Active	–	–
O=C1OC(=O)[C@H]2CC=C[C@@H]([C@H]3C(=O)N(c4ccccc4)[C@@H]3c3ccccc3)[C@@H]12	Active	Active	Active	–	–
COc1ccc([C@@H]2[C@@H]([C@@H]3C=CC[C@@H]4C(=O)N(c5ccccc5)C(=O)[C@H]34)C(=O)N2c2ccccc2)cc1	Active	Active	Active	Active	–
